pIC50: −log10 of the molar value.
Biological target: human DGAT2 (hDGAT2) (Homo sapiens (Human), UniProt Q96PD7)
Test: DGAT2 Enzymatic Activity Assay
Format: biochemical
Conditions: hDGAT2 Sf-9 membrane prep; 13C18-triolein product by LC/MS/MS; 25 μM diolein, 5 μM 13C oleoyl-CoA
How it was run: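 Enzyme source was membrane fractions from Sf-9 cells infected with untagged hDGAT2 baculovirus. Reactions ran at room temperature, and product 13C18-triolein was quantified by LC/MS/MS against a 13C21-triolein internal standard. % inhibition was normalised to high and low controls, and IC50 derived from it.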

human DGAT2 (hDGAT2), sequence (Q96PD7 whole entry): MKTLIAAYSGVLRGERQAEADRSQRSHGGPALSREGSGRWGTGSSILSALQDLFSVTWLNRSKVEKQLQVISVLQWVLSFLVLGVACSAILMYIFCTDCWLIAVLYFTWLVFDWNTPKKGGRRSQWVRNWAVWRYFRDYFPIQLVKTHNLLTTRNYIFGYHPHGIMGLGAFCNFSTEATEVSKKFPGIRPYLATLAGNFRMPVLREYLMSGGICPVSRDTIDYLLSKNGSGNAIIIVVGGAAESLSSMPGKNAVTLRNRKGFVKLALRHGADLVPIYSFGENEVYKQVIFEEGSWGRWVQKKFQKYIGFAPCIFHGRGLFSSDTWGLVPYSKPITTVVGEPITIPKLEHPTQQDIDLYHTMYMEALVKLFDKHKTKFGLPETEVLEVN

pIC50 | SMILES
7.99 | CCOc1cc(-c2nn(C(C)C(F)(F)F)c3c2CC[C@@H](C(=O)NC2(C)CCS(=O)(=O)CC2)C3)c(F)cn1 (single isomer, unassigned) [Example 53b]
7.36 | CCOc1cc(-c2nn(C(C)C(C)(C)O)c3c2CC[C@@H](C(=O)N[C@@]2(C)CCS(=O)(=O)C2)C3)c(F)cn1 (single isomer, unassigned) [Example 108a]
7.45 | CC(C)n1nc(-c2cccc(OCC(F)(F)F)c2)c2c1C[C@H](C(=O)N[C@@]1(C)CCS(=O)(=O)C1)CC2 [Example 35, (R)-1-isopropyl-N-((S)-3-methyl-1,1-dioxidotetrahydrothiophen-3-yl)-3-(3-(2,2,2-trifluoroethoxy)phenyl)-4,5,6,7-tetrahydro-1H-indazole-6-carboxamide]
7.51 | CC(n1nc(-c2cc(OC(F)F)ccc2F)c2c1C[C@H](C(=O)NC1(C)CS(=O)(=O)C1)CC2)C(C)(C)O (single isomer, unassigned) [Example 110a]
< 5.00 | CNS(=O)(=O)CCNC(=O)[C@@H]1CCc2c(-c3cccc(OC(F)F)c3)nn(C(C)C)c2C1 [Example 71, (R)-3-(3-(difluoromethoxy)phenyl)-1-isopropyl-N-(2-(N-methylsulfamoyl)ethyl)-4,5,6,7-tetrahydro-1H-indazole-6-carboxamide]
8.10 | CC(C)n1nc(-c2cc(OC(F)F)ccc2Cl)c2c1C[C@H](C(=O)NC1(C)CS(=O)(=O)C1)CC2 [Example 84, (R)-3-(2-chloro-5-(difluoromethoxy)phenyl)-1-isopropyl-N-(3-methyl-1,1-dioxidothietan-3-yl)-4,5,6,7-tetrahydro-1H-indazole-6-carboxamide]
7.53 | CC(C)NC(=O)N1CCC(C)(NC(=O)[C@@H]2CCc3c(-c4cc(OC(F)F)ccc4F)nn(C(C)C)c3C2)C1 (stereo partly drawn) [Example 60, (6R)-3-(5-(difluoromethoxy)-2-fluorophenyl)-1-isopropyl-N-(1-(isopropylcarbamoyl)-3-methylpyrrolidin-3-yl)-4,5,6,7-tetrahydro-1H-indazole-6-carboxamide]
7.61 | CC(C)n1nc(-c2cccc(OC(F)F)c2)c2c1C[C@H](C(=O)NC1(C)CCS(=O)(=O)CC1)CC2 [Example 31, (R)-3-(3-(difluoromethoxy)phenyl)-1-isopropyl-N-(4-methyl-1,1-dioxidotetrahydro-2H-thiopyran-4-yl)-4,5,6,7-tetrahydro-1H-indazole-6-carboxamide]
7.03 | CC(C)n1nc(-c2cc(OC3CC3)ncc2F)c2c1C[C@H](C(=O)NC1(C)CCS(=O)(=O)CC1)CC2 [Example 37, (R)-3-(2-cyclopropoxy-5-fluoropyridin-4-yl)-1-isopropyl-N-(4-methyl-1,1-dioxidotetrahydro-2H-thiopyran-4-yl)-4,5,6,7-tetrahydro-1H-indazole-6-carboxamide]
8.37 | [2H]C([2H])([2H])C([2H])(n1nc(-c2cc(OC(F)F)ccc2F)c2c1C[C@H](C(=O)NC1(C#N)CCS(=O)(=O)CC1)CC2)C([2H])([2H])[2H] [Example 51, (R)-N-(4-cyano-1,1-dioxidotetrahydro-2H-thiopyran-4-yl)-3-(5-(difluoromethoxy)-2-fluorophenyl)-1-(propan-2-yl-d7)-4,5,6,7-tetrahydro-1H-indazole-6-carboxamide]
6.77 | Cc1ncc(OC(F)F)cc1-c1nn(C(C)C)c2c1CC[C@@H](C(=O)NC1(C)CS(=O)(=O)C1)C2 [Example 86, (R)-3-(5-(difluoromethoxy)-2-methylpyridin-3-yl)-1-isopropyl-N-(3-methyl-1,1-dioxidothietan-3-yl)-4,5,6,7-tetrahydro-1H-indazole-6-carboxamide]
6.76 | CC(c1nccs1)n1nc(-c2cc(OC(F)F)ccc2F)c2c1C[C@H](C(=O)NC1(C)CS(=O)(=O)C1)CC2 (stereo partly drawn) [Example 80, (6R)-3-(5-(difluoromethoxy)-2-fluorophenyl)-N-(3-methyl-1,1-dioxidothietan-3-yl)-1-(1-(thiazol-2-yl)ethyl)-4,5,6,7-tetrahydro-1H-indazole-6-carboxamide]
7.46 | O=C(NC1(CO)CCC(F)(F)C1)[C@@H]1CCc2c(-c3cccc(OC(F)F)c3)nn(-c3ccc(F)cn3)c2C1 (single isomer, unassigned) [Example 8b]
8.48 | CCOc1cccc(-c2nn(C(C)C)c3c2CC[C@@H](C(=O)NC2(C)CCS(=O)(=O)CC2)C3)c1 [Example 33, (R)-3-(3-ethoxyphenyl)-1-isopropyl-N-(4-methyl-1,1-dioxidotetrahydro-2H-thiopyran-4-yl)-4,5,6,7-tetrahydro-1H-indazole-6-carboxamide]
< 5.00 | CC(=O)n1nc(-c2cccc(OC(F)F)c2)c2c1C[C@H](C(=O)N[C@@]1(C)CCS(=O)(=O)C1)CC2 [Example 73, (R)-1-acetyl-3-(3-(difluoromethoxy)phenyl)-N-((S)-3-methyl-1,1-dioxidotetrahydrothiophen-3-yl)-4,5,6,7-tetrahydro-1H-indazole-6-carboxamide]
< 5.00 | CC(C)n1nc(-c2cccc(S(C)(=O)=O)c2)c2c1C[C@H](C(=O)NC1(C)CS(=O)(=O)C1)CC2 [Example 98, (R)-1-isopropyl-N-(3-methyl-1,1-dioxidothietan-3-yl)-3-(3-(methylsulfonyl)phenyl)-4,5,6,7-tetrahydro-1H-indazole-6-carboxamide]

pIC50 | SMILES
7.76 | N#CC1(NC(=O)[C@@H]2CCc3c(-c4cncc(OC(F)F)c4)nn(-c4ccc(F)cn4)c3C2)CCOC1 (single isomer, unassigned) [Example 15a]
6.50 | Cc1ncc(OC(F)F)cc1-c1nn(C(C)C)c2c1CC[C@@H](C(=O)NC1(C)CC(F)(F)C1)C2 [Example 89, (R)-N-(3,3-difluoro-1-methylcyclobutyl)-3-(5-(difluoromethoxy)-2-methylpyridin-3-yl)-1-isopropyl-4,5,6,7-tetrahydro-1H-indazole-6-carboxamide]
9.22 | CC(C(F)F)n1nc(-c2cc(OC(F)F)ccc2F)c2c1C[C@H](C(=O)NC1(C)CCS(=O)(=O)CC1)CC2 (single isomer, unassigned) [Example 49b]
7.70 | C[C@]1(NC(=O)[C@@H]2CCc3c(-c4cccc(C5CC(F)(F)C5)c4)nn(-c4ccc(F)cc4)c3C2)CCS(=O)(=O)C1 [Example 13, (R)-3-(3-(3,3-difluorocyclobutyl)phenyl)-1-(4-fluorophenyl)-N-((S)-3-methyl-1,1-dioxidotetrahydrothiophen-3-yl)-4,5,6,7-tetrahydro-1H-indazole-6-carboxamide]
6.93 | CC(C)n1nc(-c2cncc(OC(F)(F)C(F)F)c2)c2c1C[C@H](C(=O)N[C@@]1(C)CCS(=O)(=O)C1)CC2 [Example 105, (R)-1-isopropyl-N-((S)-3-methyl-1,1-dioxidotetrahydrothiophen-3-yl)-3-(5-(1,1,2,2-tetrafluoroethoxy)pyridin-3-yl)-4,5,6,7-tetrahydro-1H-indazole-6-carboxamide]
7.51 | CCOc1cc(-c2nn(C(C)C(C)(C)O)c3c2CC[C@@H](C(=O)NC2(C)CCS(=O)(=O)CC2)C3)c(F)cn1 (single isomer, unassigned) [Example 109b]
< 5.00 | Cc1nc2c(-c3nn(C(C)C)c4c3CC[C@@H](C(=O)NC3(C)CS(=O)(=O)C3)C4)cccc2o1 [Example 93, (R)-1-isopropyl-N-(3-methyl-1,1-dioxidothietan-3-yl)-3-(2-methylbenzo[d]oxazol-4-yl)-4,5,6,7-tetrahydro-1H-indazole-6-carboxamide]
6.21 | CC(C)N1CCC(NC(=O)[C@@H]2CCc3c(-c4cc(OC(F)F)ccc4F)nn(C(C)C)c3C2)C1=O (stereo partly drawn) [Example 64, (6R)-3-(5-(difluoromethoxy)-2-fluorophenyl)-1-isopropyl-N-(1-isopropyl-2-oxopyrrolidin-3-yl)-4,5,6,7-tetrahydro-1H-indazole-6-carboxamide]
8.11 | CCOc1cc(-c2nn(C(C)C)c3c2CC[C@@H](C(=O)NC2(C)CCS(=O)(=O)CC2)C3)c(Cl)cn1 [Example 39, (R)-3-(5-chloro-2-ethoxypyridin-4-yl)-1-isopropyl-N-(4-methyl-1,1-dioxidotetrahydro-2H-thiopyran-4-yl)-4,5,6,7-tetrahydro-1H-indazole-6-carboxamide]
7.47 | C[C@]1(NC(=O)[C@@H]2CCc3c(-c4ccccc4Cl)nn(-c4ccc(F)cc4)c3C2)CCS(=O)(=O)C1 (single isomer, unassigned) [Example 1b]
6.69 | CC(C)n1nc(-c2cncc(OC(F)(F)C(F)F)c2)c2c1C[C@H](C(=O)NC1(C)CCS(=O)(=O)CC1)CC2 [Example 106, (R)-1-isopropyl-N-(4-methyl-1,1-dioxidotetrahydro-2H-thiopyran-4-yl)-3-(5-(1,1,2,2-tetrafluoroethoxy)pyridin-3-yl)-4,5,6,7-tetrahydro-1H-indazole-6-carboxamide]
7.31 | CCOc1cc(-c2nn(C(C)C(C)(C)O)c3c2CC[C@@H](C(=O)NC2(C)CCS(=O)(=O)CC2)C3)c(F)cn1 (single isomer, unassigned) [Example 109a]
6.56 | CC(C)n1nc(-c2cc(OC(F)(F)F)cnc2Cl)c2c1C[C@H](C(=O)NC1(C)CS(=O)(=O)C1)CC2 [Example 88, (R)-3-(2-chloro-5-(trifluoromethoxy)pyridin-3-yl)-1-isopropyl-N-(3-methyl-1,1-dioxidothietan-3-yl)-4,5,6,7-tetrahydro-1H-indazole-6-carboxamide]
8.29 | CC1(NC(=O)[C@@H]2CCc3c(-c4cccc(OC(F)F)c4)nn(-c4ccc(F)cn4)c3C2)CS(=O)(=O)C1 [Example 4, (R)-3-(3-(difluoromethoxy)phenyl)-1-(5-fluoropyridin-2-yl)-N-(3-methyl-1,1-dioxidothietan-3-yl)-4,5,6,7-tetrahydro-1H-indazole-6-carboxamide]
< 5.00 | CC(C)n1nc(-c2cccc(C3(C(F)(F)F)CC3)c2)c2c1C[C@H](C(=O)NC1(C)CS(=O)(=O)C1)CC2 [Example 90, (R)-1-isopropyl-N-(3-methyl-1,1-dioxidothietan-3-yl)-3-(3-(1-(trifluoromethyl)cyclopropyl)phenyl)-4,5,6,7-tetrahydro-1H-indazole-6-carboxamide]

From US20240140938A1, “PREPARATION OF TETRAHYDROINDAZOLE DERIVATIVES AS NOVEL DIACYLGLYCERIDE O-ACYLTRANSFERASE 2 INHIBITORS” (MERCK SHARP & DOHME LLC, priority 2020, published 2024)
